{
  "source": "patent US8273685B2",
  "about": "“Agrochemical composition” (Nippon Soda Co., Ltd., priority 2006, dated 2012)",
  "origin": "cited, not measured here",
  "details": "1-octanol/water",
  "data": [
    {"smiles": "O=C(NC(=O)c1c(F)cccc1F)Nc1cc(Cl)c(OC(F)(F)C(F)F)c(Cl)c1", "note": "[Hexaflumuron, 1-[3,5-dichloro-4-(1,1,2,2-tetrafluoroethoxy)phenyl]-3-(2,6-difluorobenzoyl)urea]", "values": [
      {"measurement": "Log P", "result": 4.68}
    ]},
    {"smiles": "COC(=O)c1c(C(F)F)nc(C(F)(F)F)c(C2=NCCS2)c1CC(C)C", "note": "[Thiazopyr, methyl 2-difluoromethyl-5-(4,5-dihydro-1,3-triazol-2-yl)-4-isobutyl-6-trifluoromethylnicotinate]", "values": [
      {"measurement": "Log P", "result": 3.89}
    ]},
    {"smiles": "CCN(Cc1c(F)cccc1Cl)c1c([N+](=O)[O-])cc(C(F)(F)F)cc1[N+](=O)[O-]", "note": "[Flumetralin, N-(2-chloro-6-fluorobenzyl)-N-ethyl-alpha,alpha,alpha-trifluoro-2,6-dinitro-p-toluidine]", "values": [
      {"measurement": "Log P", "result": "> 3"}
    ]},
    {"smiles": "Cc1c(F)c(F)c(COC(=O)[C@@H]2[C@H](/C=C(\\Cl)C(F)(F)F)C2(C)C)c(F)c1F", "note": "(racemic) [Tefluthrin, 2,3,5,6-tetrafluoro-4-methylbenzyl (1RS,3RS)-3-[(Z)-2-chloro-3,3,3-trifluoroprop-1-enyl]-2,2-dimethylcyclopropanecarboxylat]", "values": [
      {"measurement": "Log P", "result": 6.5}
    ]},
    {"smiles": "O=C(NC(=O)c1c(F)cccc1F)Nc1ccc(Cl)c(Oc2ncc(C(F)(F)F)cc2Cl)c1", "note": "[Fluazuron, 1-[4-chloro-3-(3-chloro-5-trifluoromethyl-2-pyridyloxy)phenyl]-3-(2,6-difluorobenzoyl)urea]", "values": [
      {"measurement": "Log P", "result": 5.1}
    ]}
  ]
}
